Measurements from DBAASP.
In brackets after ≈: the same amount, converted by molar mass.

Assays:
Assay in all cases: ≥ marks a high value that may be exact or a test limit, other limits are often not marked, values filed in µg/mL are converted to µM
[1] = test system: Streptococcus pyogenes KCTC 3096
[2] = test system: Escherichia coli KCTC 1682
[3] = test system: Bacillus subtilis KCTC 1918
[4] = test system: Pseudomonas aeruginosa KCTC 1637
[5] = test system: Staphylococcus aureus KCTC 1621
[6] = test system: Candida albicans TIMM 1768
[7] = test system: Aspergillus fumigatus KCTC 4165
[8] = test system: Salmonella typhimurium KCTC 1926

Work on `CC[C@H](C)[C@H](NC(=O)[C@H](CCCCN)NC(=O)[C@H](CCCCN)NC(=O)[C@H](CC(C)C)NC(=O)[C@H](CCCCN)NC(=O)[C@H](CCC(=O)O)NC(=O)CN)C(=O)NCC(=O)N[C@@H](CCC(N)=O)C(=O)N[C@@H](CCCCN)C(=O)N[C@H](C(=O)N[C@@H](CCCCN)C(=O)N[C@@H](CC(N)=O)C(=O)N[C@@H](Cc1ccccc1)C(=O)N[C@@H](Cc1ccccc1)C(=O)N[C@@H](CCCCN)C(=O)N[C@@H](CCCCN)C(=O)N[C@@H](CC(C)C)C(=O)O)[C@@H](C)CC` [GEKLKKIGQKIKNFFKKL] yielded an MIC [1] of 12.5 µM (≈ 26.8 µg/mL), an MIC [2] of 6.25 µM (≈ 13.4 µg/mL) and an MIC [3] of 6.25 µM (≈ 13.4 µg/mL). The MIC [4] was 3.12 µM (≈ 6.7 µg/mL), the MIC [5] was 6.25 µM (≈ 13.4 µg/mL) and the MIC [6] was 25 µM (≈ 53.7 µg/mL). It also gave an MIC [7] of 25 µM (≈ 53.7 µg/mL) and an MIC [8] of 6.25 µM (≈ 13.4 µg/mL).
